Results reported in patent US20020055639A1, “Pyrazole derivatives as herbicides” (priority 1997, published 2002).

Key:
Assay type in all cases: in vivo
Parameters in all cases: key: 1=total damage; 9=no action; Ratings of from 1 to 4 (especially from 1 to 3) indicate good to very good herbicidal action
Sinapis [1] = assay: Post-emergence herbicidal action (Example B2); conditions: 2000 g a.i./ha, sprayed at 4- to 6-leaf stage, evaluated after approximately 18 days, scale of nine ratings
Protocol: (§1) Monocotyledonous and dicotyledonous test plants are grown in a greenhouse in plastics pots containing standard soil and at the 4- to 6-leaf stage are sprayed with an aqueous suspension or emulsion of the test substances of formula I, prepared from a 25% emulsifiable concentrate (Example F1, c) in WO 97/34485, pages 9 and 10), at a rate of application corresponding to 2000 g of active ingredient/ha (500 liters water/ha). The test plants are then grown on in the greenhouse under optimum conditions. After approximately 18 days' test duration, the test is evaluated in accordance with a scale of nine ratings (1=total damage, 9=no action). Ratings of from 1 to 4 (especially from 1 to 3) indicate good to very good herbicidal action.
(§2) Test plants: Avena, Setaria, Sinapis, Stellaria

Stellaria [2] = assay: Post-emergence herbicidal action (Example B2); conditions: 2000 g a.i./ha, sprayed at 4- to 6-leaf stage, evaluated after approximately 18 days, scale of nine ratings
Protocol: as §1, §2

Avena [3] = assay: Post-emergence herbicidal action (Example B2); conditions: 2000 g a.i./ha, sprayed at 4- to 6-leaf stage, evaluated after approximately 18 days, scale of nine ratings
Protocol: as §1, §2

Setaria [4] = assay: Post-emergence herbicidal action (Example B2); conditions: 2000 g a.i./ha, sprayed at 4- to 6-leaf stage, evaluated after approximately 18 days, scale of nine ratings
Protocol: as §1, §2

Sinapis [5] = assay: Pre-emergence herbicidal action (Example B1); conditions: 2000 g a.i./ha, sprayed immediately after sowing, evaluated after 3 weeks, scale of nine ratings
Protocol: (§3) Monocotyledonous and dicotyledonous test plants are sown in standard soil in plastics pots. Immediately after sowing, the test compounds, each in the form of an aqueous suspension or emulsion prepared from a 25% emulsifiable concentrate (Example F1, c) in WO 97/34485, pages 9 and 10), are applied by spraying at a rate of application of 2000 g of active ingredient/ha (500 liters water/ha). The test plants are then grown in a greenhouse under optimum conditions. After 3 weeks' test duration, the test is evaluated in accordance with a scale of nine ratings (1=total damage, 9=no action). Ratings of from 1 to 4 (especially from 1 to 3) indicate good to very good herbicidal action.
as §2

Stellaria [6] = assay: Pre-emergence herbicidal action (Example B1); conditions: 2000 g a.i./ha, sprayed immediately after sowing, evaluated after 3 weeks, scale of nine ratings
Protocol: as §3, §2

Avena [7] = assay: Pre-emergence herbicidal action (Example B1); conditions: 2000 g a.i./ha, sprayed immediately after sowing, evaluated after 3 weeks, scale of nine ratings
Protocol: as §3, §2

Setaria [8] = assay: Pre-emergence herbicidal action (Example B1); conditions: 2000 g a.i./ha, sprayed immediately after sowing, evaluated after 3 weeks, scale of nine ratings
Protocol: as §3, §2

Cn1nc(-c2ccc(Cl)c(=O)n2C)c(Cl)c1OC(F)F [Example 1.001]
Post-emergence action: Sinapis (rating) (Sinapis [1]): 1 | Post-emergence action: Stellaria (rating) (Stellaria [2]): 1 | Post-emergence action: Avena (rating) (Avena [3]): 1 | Post-emergence action: Setaria (rating) (Setaria [4]): 1 | Pre-emergence action: Sinapis (rating) (Sinapis [5]): 1 | Pre-emergence action: Stellaria (rating) (Stellaria [6]): 1 | Pre-emergence action: Avena (rating) (Avena [7]): 1 | Pre-emergence action: Setaria (rating) (Setaria [8]): 1

Cn1nc(-c2c(F)cc(Cl)c(=O)n2C)c(Cl)c1OC(F)F [Example 1.002]
Post-emergence action: Sinapis (rating) (Sinapis [1]): 1 | Post-emergence action: Stellaria (rating) (Stellaria [2]): 1 | Post-emergence action: Avena (rating) (Avena [3]): 1 | Post-emergence action: Setaria (rating) (Setaria [4]): 1 | Pre-emergence action: Sinapis (rating) (Sinapis [5]): 1 | Pre-emergence action: Stellaria (rating) (Stellaria [6]): 1 | Pre-emergence action: Avena (rating) (Avena [7]): 1 | Pre-emergence action: Setaria (rating) (Setaria [8]): 1

Cn1nc(-c2c(Cl)cc(Cl)c(=O)n2C)c(Cl)c1OC(F)F [Example 1.003]
Post-emergence action: Sinapis (rating) (Sinapis [1]): 1 | Post-emergence action: Stellaria (rating) (Stellaria [2]): 1 | Post-emergence action: Avena (rating) (Avena [3]): 1 | Post-emergence action: Setaria (rating) (Setaria [4]): 1 | Pre-emergence action: Sinapis (rating) (Sinapis [5]): 1 | Pre-emergence action: Stellaria (rating) (Stellaria [6]): 1 | Pre-emergence action: Avena (rating) (Avena [7]): 1 | Pre-emergence action: Setaria (rating) (Setaria [8]): 1

CCn1c(-c2nn(C)c(OC(F)F)c2Cl)c(F)cc(Cl)c1=O [Example 1.004]
Post-emergence action: Sinapis (rating) (Sinapis [1]): 1 | Post-emergence action: Stellaria (rating) (Stellaria [2]): 1 | Post-emergence action: Avena (rating) (Avena [3]): 1 | Post-emergence action: Setaria (rating) (Setaria [4]): 2 | Pre-emergence action: Sinapis (rating) (Sinapis [5]): 1 | Pre-emergence action: Stellaria (rating) (Stellaria [6]): 1 | Pre-emergence action: Avena (rating) (Avena [7]): 1 | Pre-emergence action: Setaria (rating) (Setaria [8]): 1

CCCCn1c(-c2nn(C)c(OC(F)F)c2Cl)c(F)cc(Cl)c1=O [Example 1.010]
Post-emergence action: Sinapis (rating) (Sinapis [1]): 1 | Post-emergence action: Stellaria (rating) (Stellaria [2]): 1 | Post-emergence action: Avena (rating) (Avena [3]): 1 | Post-emergence action: Setaria (rating) (Setaria [4]): 1 | Pre-emergence action: Sinapis (rating) (Sinapis [5]): 1 | Pre-emergence action: Stellaria (rating) (Stellaria [6]): 1 | Pre-emergence action: Avena (rating) (Avena [7]): 1 | Pre-emergence action: Setaria (rating) (Setaria [8]): 1

C=CCn1c(-c2nn(C)c(OC(F)F)c2Cl)c(F)cc(Cl)c1=O [Example 1.080]
Post-emergence action: Sinapis (rating) (Sinapis [1]): 1 | Post-emergence action: Stellaria (rating) (Stellaria [2]): 1 | Post-emergence action: Avena (rating) (Avena [3]): 1 | Post-emergence action: Setaria (rating) (Setaria [4]): 1 | Pre-emergence action: Sinapis (rating) (Sinapis [5]): 1 | Pre-emergence action: Stellaria (rating) (Stellaria [6]): 1 | Pre-emergence action: Avena (rating) (Avena [7]): 1 | Pre-emergence action: Setaria (rating) (Setaria [8]): 1

C#CCn1c(-c2nn(C)c(OC(F)F)c2Cl)c(F)cc(Cl)c1=O [Example 1.100]
Post-emergence action: Sinapis (rating) (Sinapis [1]): 1 | Post-emergence action: Stellaria (rating) (Stellaria [2]): 1 | Post-emergence action: Avena (rating) (Avena [3]): 1 | Post-emergence action: Setaria (rating) (Setaria [4]): 1 | Pre-emergence action: Sinapis (rating) (Sinapis [5]): 1 | Pre-emergence action: Stellaria (rating) (Stellaria [6]): 1 | Pre-emergence action: Avena (rating) (Avena [7]): 1 | Pre-emergence action: Setaria (rating) (Setaria [8]): 1

Cn1nc(-c2c(F)cc(Cl)c(=O)n2CCc2ccccc2)c(Cl)c1OC(F)F [Example 1.105]
Post-emergence action: Sinapis (rating) (Sinapis [1]): 1 | Post-emergence action: Stellaria (rating) (Stellaria [2]): 1 | Post-emergence action: Avena (rating) (Avena [3]): 1 | Post-emergence action: Setaria (rating) (Setaria [4]): 2 | Pre-emergence action: Sinapis (rating) (Sinapis [5]): 1 | Pre-emergence action: Stellaria (rating) (Stellaria [6]): 1 | Pre-emergence action: Avena (rating) (Avena [7]): 1 | Pre-emergence action: Setaria (rating) (Setaria [8]): 1

Cn1nc(-c2c(F)cc(Cl)c(=O)n2CCCc2ccccc2)c(Cl)c1OC(F)F [Example 1.106]
Post-emergence action: Sinapis (rating) (Sinapis [1]): 1 | Post-emergence action: Stellaria (rating) (Stellaria [2]): 1 | Post-emergence action: Avena (rating) (Avena [3]): 3 | Post-emergence action: Setaria (rating) (Setaria [4]): 3 | Pre-emergence action: Sinapis (rating) (Sinapis [5]): 1 | Pre-emergence action: Stellaria (rating) (Stellaria [6]): 1 | Pre-emergence action: Avena (rating) (Avena [7]): 2 | Pre-emergence action: Setaria (rating) (Setaria [8]): 1

Cn1nc(-c2c(F)cc(Cl)c(=O)n2Cc2ccccc2)c(Cl)c1OC(F)F [Example 1.111]
Post-emergence action: Sinapis (rating) (Sinapis [1]): 1 | Post-emergence action: Stellaria (rating) (Stellaria [2]): 2 | Post-emergence action: Avena (rating) (Avena [3]): 2 | Post-emergence action: Setaria (rating) (Setaria [4]): 1 | Pre-emergence action: Sinapis (rating) (Sinapis [5]): 1 | Pre-emergence action: Stellaria (rating) (Stellaria [6]): 1 | Pre-emergence action: Avena (rating) (Avena [7]): 2 | Pre-emergence action: Setaria (rating) (Setaria [8]): 1

Cn1nc(-c2c(F)cc(Cl)c(=O)n2CC#N)c(Cl)c1OC(F)F [Example 1.126]
Post-emergence action: Sinapis (rating) (Sinapis [1]): 1 | Post-emergence action: Stellaria (rating) (Stellaria [2]): 1 | Post-emergence action: Avena (rating) (Avena [3]): 1 | Post-emergence action: Setaria (rating) (Setaria [4]): 1 | Pre-emergence action: Sinapis (rating) (Sinapis [5]): 1 | Pre-emergence action: Stellaria (rating) (Stellaria [6]): 1 | Pre-emergence action: Avena (rating) (Avena [7]): 1 | Pre-emergence action: Setaria (rating) (Setaria [8]): 1

CSCn1c(-c2nn(C)c(OC(F)F)c2Cl)c(F)cc(Cl)c1=O [Example 1.147]
Post-emergence action: Sinapis (rating) (Sinapis [1]): 1 | Post-emergence action: Stellaria (rating) (Stellaria [2]): 1 | Post-emergence action: Avena (rating) (Avena [3]): 1 | Post-emergence action: Setaria (rating) (Setaria [4]): 1 | Pre-emergence action: Sinapis (rating) (Sinapis [5]): 1 | Pre-emergence action: Stellaria (rating) (Stellaria [6]): 1 | Pre-emergence action: Avena (rating) (Avena [7]): 1 | Pre-emergence action: Setaria (rating) (Setaria [8]): 1

Cn1nc(-c2c(F)cc(Cl)c(=O)n2C[S+](C)[O-])c(Cl)c1OC(F)F (centres unmarked) [Example 1.150]
Post-emergence action: Sinapis (rating) (Sinapis [1]): 1 | Post-emergence action: Stellaria (rating) (Stellaria [2]): 1 | Post-emergence action: Avena (rating) (Avena [3]): 1 | Post-emergence action: Setaria (rating) (Setaria [4]): 1 | Pre-emergence action: Sinapis (rating) (Sinapis [5]): 1 | Pre-emergence action: Stellaria (rating) (Stellaria [6]): 1 | Pre-emergence action: Avena (rating) (Avena [7]): 1 | Pre-emergence action: Setaria (rating) (Setaria [8]): 1

Cn1nc(-c2c(Cl)cc(Cl)c(=O)n2CS(C)(=O)=O)c(Cl)c1OC(F)F [Example 1.152]
Post-emergence action: Sinapis (rating) (Sinapis [1]): 1 | Post-emergence action: Stellaria (rating) (Stellaria [2]): 1 | Post-emergence action: Avena (rating) (Avena [3]): 1 | Post-emergence action: Setaria (rating) (Setaria [4]): 1 | Pre-emergence action: Sinapis (rating) (Sinapis [5]): 1 | Pre-emergence action: Stellaria (rating) (Stellaria [6]): 1 | Pre-emergence action: Avena (rating) (Avena [7]): 1 | Pre-emergence action: Setaria (rating) (Setaria [8]): 1

Cn1nc(-c2c(F)cc(Cl)c(=O)n2CS(C)(=O)=O)c(Cl)c1OC(F)F [Example 1.153]
Post-emergence action: Sinapis (rating) (Sinapis [1]): 1 | Post-emergence action: Stellaria (rating) (Stellaria [2]): 1 | Post-emergence action: Avena (rating) (Avena [3]): 1 | Post-emergence action: Setaria (rating) (Setaria [4]): 1 | Pre-emergence action: Sinapis (rating) (Sinapis [5]): 1 | Pre-emergence action: Stellaria (rating) (Stellaria [6]): 1 | Pre-emergence action: Avena (rating) (Avena [7]): 1 | Pre-emergence action: Setaria (rating) (Setaria [8]): 1

CCSCCn1c(-c2nn(C)c(OC(F)F)c2Cl)c(F)cc(Cl)c1=O [Example 1.156]
Post-emergence action: Sinapis (rating) (Sinapis [1]): 1 | Post-emergence action: Stellaria (rating) (Stellaria [2]): 1 | Post-emergence action: Avena (rating) (Avena [3]): 1 | Post-emergence action: Setaria (rating) (Setaria [4]): 1 | Pre-emergence action: Sinapis (rating) (Sinapis [5]): 1 | Pre-emergence action: Stellaria (rating) (Stellaria [6]): 1 | Pre-emergence action: Avena (rating) (Avena [7]): 1 | Pre-emergence action: Setaria (rating) (Setaria [8]): 1

CCS(=O)(=O)CCn1c(-c2nn(C)c(OC(F)F)c2Cl)c(F)cc(Cl)c1=O [Example 1.168]
Post-emergence action: Sinapis (rating) (Sinapis [1]): 1 | Post-emergence action: Stellaria (rating) (Stellaria [2]): 1 | Post-emergence action: Avena (rating) (Avena [3]): 1 | Post-emergence action: Setaria (rating) (Setaria [4]): 1 | Pre-emergence action: Sinapis (rating) (Sinapis [5]): 1 | Pre-emergence action: Stellaria (rating) (Stellaria [6]): 1 | Pre-emergence action: Avena (rating) (Avena [7]): 1 | Pre-emergence action: Setaria (rating) (Setaria [8]): 1

CCOC(=O)Cn1c(-c2nn(C)c(OC(F)F)c2Cl)c(F)cc(Cl)c1=O [Example 1.181]
Post-emergence action: Sinapis (rating) (Sinapis [1]): 1 | Post-emergence action: Stellaria (rating) (Stellaria [2]): 1 | Post-emergence action: Avena (rating) (Avena [3]): 1 | Post-emergence action: Setaria (rating) (Setaria [4]): 1 | Pre-emergence action: Sinapis (rating) (Sinapis [5]): 1 | Pre-emergence action: Stellaria (rating) (Stellaria [6]): 1 | Pre-emergence action: Avena (rating) (Avena [7]): 1 | Pre-emergence action: Setaria (rating) (Setaria [8]): 1

Cn1nc(-c2c(F)cc(Cl)c(=O)n2CC(=O)OCc2ccccc2)c(Cl)c1OC(F)F [Example 1.195]
Post-emergence action: Sinapis (rating) (Sinapis [1]): 1 | Post-emergence action: Stellaria (rating) (Stellaria [2]): 1 | Post-emergence action: Avena (rating) (Avena [3]): 1 | Post-emergence action: Setaria (rating) (Setaria [4]): 1 | Pre-emergence action: Sinapis (rating) (Sinapis [5]): 1 | Pre-emergence action: Stellaria (rating) (Stellaria [6]): 1 | Pre-emergence action: Avena (rating) (Avena [7]): 3 | Pre-emergence action: Setaria (rating) (Setaria [8]): 1
